This passage reports IC50 and Activity results from ChEMBL document CHEMBL5108012, “Discovery of 2,5-diphenyl-1,3,4-thiadiazole derivatives as HDAC inhibitors with DNA binding affinity” (Eur J Med Chem, 2022).

The source made the active and inactive calls. No cut-off for these calls is given here.

The target of experiment [1] is Histone deacetylase (HDAC1 and HDAC2) (Homo sapiens, UniProt Q13547+Q92769). Description: Inhibition of HDAC1/HDAC2 in human HeLa cell nuclear extract using Boc-Lys(Ac)-AMC as substrate and measured by fluorometric method. It counts as cell-based.
The test system of experiment [2] is HCT-116. In words: Induction of apoptosis in human HCT-116 cells assessed as early apoptotic cells at 1.5 uM incubated for 48 hrs by PI and annexin V-FITC staining based flow cytometry (reference value: 3.4%). It counts as functional. In general terms: A flow cytometer gives signals particle by particle.
Experiment [3] concerns HCT-116. Description: Induction of apoptosis in human HCT-116 cells assessed as late apoptotic cells at 1.5 uM incubated for 48 hrs by PI and annexin V-FITC staining based flow cytometry (reference value: 3.4%). Format: functional.
Experiment [4] concerns MOLT-4. In words: Antiproliferative activity against human MOLT-4 cells after 48 hrs by CCK-8 assay. It counts as functional, cell-based. The settings on record: MOLT-4, 48 h. On the technique in general: Formazan colour is commonly taken as a measure of viable cells.
Experiment [5] has as its system HEL. Description: Antiproliferative activity against human HEL cells after 48 hrs by CCK-8 assay. Format: functional, cell-based.
The subject of experiment [6] is MC-38. In words: Antiproliferative activity against mouse MC38 cells after 48 hrs by CCK-8 assay. It counts as functional, cell-based. The settings on record: MC-38, 48 h.
Experiment [7] deals with K562. In words: Antiproliferative activity against human K562 cells after 48 hrs by CCK-8 assay. Format: functional, cell-based. The settings on record: K562, 48 h.
Experiment [8] has as its system HCT-116. In words: Antiproliferative activity against human HCT-116 cells after 48 hrs by CCK-8 assay. Format: functional, cell-based. To be noted: HCT-116, 48 h.
Experiment [9] addresses Histone deacetylase 1 (Homo sapiens, UniProt Q13547). In words: Inhibition of HDAC1 in human HeLa cell nuclear extract using Boc-Lys(Ac)-AMC or Boc-Lys(triflouroacetyl)-AMC as substrate incubated for 30 mins and measured by fluorescence assay. Format: cell-free.
The target of experiment [10] is T1, Protein deacetylase HDAC6 (Homo sapiens, UniProt Q9UBN7).
T1 sequence (Q9UBN7 whole entry): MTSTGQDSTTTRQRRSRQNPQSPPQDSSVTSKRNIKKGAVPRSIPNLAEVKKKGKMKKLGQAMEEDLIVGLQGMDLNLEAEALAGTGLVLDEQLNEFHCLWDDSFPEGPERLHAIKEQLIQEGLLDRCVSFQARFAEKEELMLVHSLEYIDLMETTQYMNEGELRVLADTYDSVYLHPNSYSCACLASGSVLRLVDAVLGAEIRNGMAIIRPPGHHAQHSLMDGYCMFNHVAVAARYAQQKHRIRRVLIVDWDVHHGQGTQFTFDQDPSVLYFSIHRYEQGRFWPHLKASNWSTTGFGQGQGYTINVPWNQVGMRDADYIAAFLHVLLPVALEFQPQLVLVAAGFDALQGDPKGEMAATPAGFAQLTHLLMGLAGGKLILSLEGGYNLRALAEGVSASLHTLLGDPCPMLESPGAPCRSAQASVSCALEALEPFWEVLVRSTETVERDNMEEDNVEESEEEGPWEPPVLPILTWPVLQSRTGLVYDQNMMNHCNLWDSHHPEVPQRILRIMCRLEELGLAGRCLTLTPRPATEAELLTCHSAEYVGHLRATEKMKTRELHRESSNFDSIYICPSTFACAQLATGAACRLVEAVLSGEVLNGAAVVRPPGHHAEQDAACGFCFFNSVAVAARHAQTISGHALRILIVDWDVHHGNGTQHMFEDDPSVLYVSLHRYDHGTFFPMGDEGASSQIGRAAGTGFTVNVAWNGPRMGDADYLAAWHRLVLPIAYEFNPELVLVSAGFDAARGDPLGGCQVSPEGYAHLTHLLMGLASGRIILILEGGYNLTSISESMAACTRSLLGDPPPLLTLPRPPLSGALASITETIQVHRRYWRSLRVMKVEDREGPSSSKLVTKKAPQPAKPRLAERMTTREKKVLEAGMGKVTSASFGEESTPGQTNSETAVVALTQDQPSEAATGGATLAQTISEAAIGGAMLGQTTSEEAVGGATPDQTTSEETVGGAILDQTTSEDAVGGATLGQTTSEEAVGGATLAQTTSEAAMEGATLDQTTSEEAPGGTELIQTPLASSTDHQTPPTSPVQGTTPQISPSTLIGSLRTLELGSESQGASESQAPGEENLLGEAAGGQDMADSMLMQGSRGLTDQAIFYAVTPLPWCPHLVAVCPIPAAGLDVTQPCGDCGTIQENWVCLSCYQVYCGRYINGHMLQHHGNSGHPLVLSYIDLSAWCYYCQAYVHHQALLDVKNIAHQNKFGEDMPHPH
In words: Inhibition of HDAC6 in human HeLa cell nuclear extract using Boc-Lys(Ac)-AMC or Boc-Lys(triflouroacetyl)-AMC as substrate incubated for 30 mins and measured by fluorescence assay. Format: cell-free.

Experiment [11] has as its system HepG2. In words: Antiproliferative activity against human HepG2 cells after 48 hrs by CCK-8 assay. It counts as functional, cell-based. To be noted: HepG2, 48 h.
In experiment [12] the target is T2, Histone deacetylase 8 (Homo sapiens, UniProt Q9BY41).
T2 sequence (Q9BY41 whole entry): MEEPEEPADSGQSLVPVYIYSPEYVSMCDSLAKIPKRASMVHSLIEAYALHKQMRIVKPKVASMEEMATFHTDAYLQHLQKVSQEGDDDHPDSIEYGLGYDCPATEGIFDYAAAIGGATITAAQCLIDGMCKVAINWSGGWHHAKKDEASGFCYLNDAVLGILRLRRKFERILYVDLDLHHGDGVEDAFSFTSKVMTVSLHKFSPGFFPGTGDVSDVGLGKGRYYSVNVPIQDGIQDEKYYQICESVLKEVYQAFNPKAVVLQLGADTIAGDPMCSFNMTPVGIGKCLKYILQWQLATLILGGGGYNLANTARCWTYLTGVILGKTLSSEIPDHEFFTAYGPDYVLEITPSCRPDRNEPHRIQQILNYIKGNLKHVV
Description: Inhibition of HDAC8 in human HeLa cell nuclear extract using Boc-Lys(Ac)-AMC or Boc-Lys(triflouroacetyl)-AMC as substrate incubated for 30 mins and measured by fluorescence assay. It counts as cell-free.

Experiment [13] relates to HeLa. In words: Antiproliferative activity against human HeLa cells after 48 hrs by CCK-8 assay. Format: functional, cell-based.
Experiment [14] deals with Calf thymus DNA. In words: Binding affinity to calf thymus DNA at 50 uM incubated for 30 mins and measured by fluorescence spectroscopy. It counts as nucleic-acid assay. The settings on record: Bos taurus.
Experiment [15] relates to Calf thymus DNA. Description: Binding affinity to calf thymus DNA at 50 uM incubated for 30 mins and measured by UV-vis absorption spectroscopy. The settings on record: Bos taurus. Format: nucleic-acid assay.

Histone deacetylase 1, sequence (Q13547 whole entry): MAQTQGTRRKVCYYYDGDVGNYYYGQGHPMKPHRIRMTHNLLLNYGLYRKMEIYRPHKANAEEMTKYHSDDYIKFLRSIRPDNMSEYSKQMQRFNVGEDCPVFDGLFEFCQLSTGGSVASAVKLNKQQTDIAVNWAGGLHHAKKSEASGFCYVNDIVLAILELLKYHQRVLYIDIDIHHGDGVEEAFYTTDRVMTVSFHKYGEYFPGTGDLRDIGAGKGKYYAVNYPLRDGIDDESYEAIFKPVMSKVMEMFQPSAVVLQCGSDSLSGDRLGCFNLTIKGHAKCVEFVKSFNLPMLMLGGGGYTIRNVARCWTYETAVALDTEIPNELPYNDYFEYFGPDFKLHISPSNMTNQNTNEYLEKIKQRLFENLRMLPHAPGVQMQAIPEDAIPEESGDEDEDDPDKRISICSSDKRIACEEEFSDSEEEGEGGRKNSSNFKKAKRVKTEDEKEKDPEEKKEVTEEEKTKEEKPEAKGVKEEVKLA

For `O=C(CCCCCCCOc1cccc(-c2nnc(-c3ccccc3)s2)c1)NO`, in experiment [1], the IC50 (commonly the concentration at which inhibition is half-maximal) is recorded as 538 nM.
For `COc1cc(-c2nnc(-c3ccc(OCCCCCCCC(=O)NO)cc3)s2)cc(OC)c1OC`, the IC50 in experiment [1] is reported as more than 1000 nM.
Consider `O=C(CCCCCOc1ccc(-c2nnc(-c3ccccc3)s2)cc1)NO`, for which the half-maximal inhibitory concentration (IC50) in experiment [1] is recorded as more than 1000 nM.
For `COc1cc(-c2nnc(-c3ccc(OCCCCCCC(=O)NO)cc3)s2)cc(OC)c1OC`, in experiment [1], the IC50 is recorded as 537 nM.
The same measure, in the same setting: the same measure for `O=C(CCCCCOc1ccc(-c2nnc(-c3ccccc3Cl)s2)cc1)NO`: more than 1000 nM; for `O=C(CCCOc1ccc(-c2nnc(-c3ccccc3)s2)cc1)NO`: more than 1000 nM.
As for `O=C(CCCCCCC(=O)Nc1ccccc1)NO` [VORINOSTAT], the Activity in experiment [2] and in experiment [3] was 5.05% throughout.
Consider `COc1cc(-c2nnc(-c3cccc(OCCCCCCCC(=O)NO)c3)s2)cc(OC)c1OC`, for which, in experiment [1], the half-inhibitory concentration (IC50) came to 395 nM.
Still for that read-out and setting: the same measure for `COc1cc(-c2nnc(-c3cccc(OCCCCC(=O)NO)c3)s2)cc(OC)c1OC`: more than 1000 nM.
For `O=C(CCCCCCOc1cccc(-c2nnc(-c3ccccc3)s2)c1)NO`, the half-inhibitory concentration (IC50) in [4] is 710 nM; in experiment [5], 2600 nM; in [6] it was 2400 nM; in [7] it was 3200 nM; in [8], 2900 nM; in experiment [1], 57 nM. Further, the IC50 in [9] worked out at 19 nM; in experiment [10] it was 185 nM; in experiment [11], 2200 nM; in [12] it was 2390 nM; in [13] it was 4900 nM.
On to `O=C(COc1ccc(-c2nnc(-c3ccccc3Cl)s2)cc1)NO`, for which the IC50 in [1] was more than 1000 nM.
The same measure, in the same setting: the same measure for `COc1cc(-c2nnc(-c3ccc(OCC(=O)NO)cc3)s2)cc(OC)c1OC`: more than 1000 nM; for `O=C(COc1cccc(-c2nnc(-c3ccccc3Cl)s2)c1)NO`: more than 1000 nM.
As to `COc1cc(-c2nnc(-c3ccc(OCCCCCC(=O)NO)cc3)s2)cc(OC)c1OC`, the IC50 in experiment [1] is reported as more than 1000 nM.
Consider `COc1cc(-c2nnc(-c3ccc(OCCCC(=O)NO)cc3)s2)cc(OC)c1OC`, for which the IC50 in [1] is more than 1000 nM.
In [1], `O=C(COc1ccc(-c2nnc(-c3ccccc3)s2)cc1)NO` had an IC50 of more than 1000 nM.
Take `O=C(CCCCCCOc1ccc(-c2nnc(-c3ccccc3)s2)cc1)NO`: the IC50 in experiment [4] was 3100 nM; in experiment [5] it was more than 10000 nM; in experiment [6], 14000 nM; in [7] it was 16000 nM; in experiment [8], 20000 nM; in [1] it was 199 nM. Further, the IC50 is 82 nM in [9]; 64 nM in [10]; more than 50000 nM in experiment [11]; more than 10000 nM in experiment [12]; more than 50000 nM in experiment [13].
As to `O=C(CCCCCCOc1ccc(-c2nnc(-c3ccccc3Cl)s2)cc1)NO`, the IC50 in experiment [1] is given as more than 1000 nM.
With `O=C(CCCOc1cccc(-c2nnc(-c3ccccc3Cl)s2)c1)NO`, in [1], the IC50 is reported as more than 1000 nM.
As to `O=C(CCCCCCCOc1ccc(-c2nnc(-c3ccccc3)s2)cc1)NO`, the IC50 in [1] is more than 1000 nM.
`O=C(CCCCCOc1cccc(-c2nnc(-c3ccccc3Cl)s2)c1)NO`: the IC50 in experiment [1] is recorded as 339 nM.
The molecule `O=C(CCCCCCCOc1ccc(-c2nnc(-c3ccccc3Cl)s2)cc1)NO` registered an IC50 in [1] of more than 1000 nM.
Turning to `CN1CCN(c2ccc3[nH]c(-c4ccc5[nH]c(-c6ccc(O)cc6)nc5c4)nc3c2)CC1`, the result in experiment [14] and in experiment [15] was Active.
As for `O=C(CCCCCCOc1cccc(-c2nnc(-c3ccccc3Cl)s2)c1)NO`, the IC50 in [4] is 2400 nM; in experiment [5], 8100 nM; in experiment [6] it was 16000 nM; in [7] it was 7700 nM; in experiment [8], 10000 nM; in experiment [1] it was 168 nM. Moreover, the IC50 in experiment [9] worked out at 168 nM; in experiment [10], 30 nM; in [11], 21000 nM; in [12] it was 1520 nM; in experiment [13], 17000 nM.
`O=C(CCCCOc1ccc(-c2nnc(-c3ccccc3Cl)s2)cc1)NO`: the IC50 in experiment [1] was more than 1000 nM.
The same measure, in the same setting: the same measure for `COc1cc(-c2nnc(-c3cccc(OCC(=O)NO)c3)s2)cc(OC)c1OC`: more than 1000 nM.
`COc1cc(-c2nnc(-c3cccc(OCCCCCC(=O)NO)c3)s2)cc(O)c1OC` gave an IC50 in [1] of more than 1000 nM.
On the same count and under the same terms, the same measure for `O=C(CCCCOc1ccc(-c2nnc(-c3ccccc3)s2)cc1)NO`: 362 nM; for `O=C(CCCOc1cccc(-c2nnc(-c3ccccc3)s2)c1)NO`: more than 1000 nM.
`O=C(CCCCCCCOc1cccc(-c2nnc(-c3ccccc3Cl)s2)c1)NO` returned an IC50 in experiment [1] of 461 nM.
In experiment [1], `O=C(COc1cccc(-c2nnc(-c3ccccc3)s2)c1)NO` displayed a concentration for half-maximal inhibition (IC50) of more than 1000 nM.
The molecule `O=C(CCCOc1ccc(-c2nnc(-c3ccccc3Cl)s2)cc1)NO` had a half-maximal inhibitory concentration (IC50) in experiment [1] of more than 1000 nM.
Still for that read-out and setting: the same measure for `COc1cc(-c2nnc(-c3cccc(OCCCC(=O)NO)c3)s2)cc(OC)c1OC`: more than 1000 nM; for `COc1cc(-c2nnc(-c3ccc(OCCCCC(=O)NO)cc3)s2)cc(OC)c1OC`: more than 1000 nM; for `O=C(CCCCOc1cccc(-c2nnc(-c3ccccc3Cl)s2)c1)NO`: 656 nM.
For `O=C(CCCCOc1cccc(-c2nnc(-c3ccccc3)s2)c1)NO`, the IC50 in experiment [4] turned out to be 490 nM; in [5], 570 nM; in [6], 7100 nM; in experiment [7], 2100 nM; in experiment [8], 2000 nM; in [1] it was 118 nM. Also, the IC50 in [9] worked out at 179 nM; in [10], 32 nM; in experiment [11], 11000 nM; in [12], 3110 nM; in [13], 1900 nM.
For the molecule `COc1cc(-c2nnc(-c3cccc(OCCCCCCC(=O)NO)c3)s2)cc(OC)c1OC`, the IC50 in [1] is given as 366 nM.
